Experimental data published in paper PMC7880690, “Chemical genetics and proteome-wide site mapping reveal cysteine MARylation by PARP-7 on immune-relevant protein targets” (eLife, 2021).

Experiments:
IG-PARP-7 (I631G PARP-7) = target: T1, IG-PARP-7 (I631G PARP-7) (Homo sapiens, UniProt Q7Z3E1, I631G); experiment: Labeling by orthogonal NAD+ analogs in HEK 293T lysates expressing GFP-IG-PARP-7 (click with biotin-azide, Streptavidin-HRP); format: biochemical; settings: HEK 293 T cell lysates, 100 µM NAD+ analog
T1 construct: expressed in transfected cells; host or cells: HEK 293T (lysate)
Excerpt: Identifying the protein targets of PARP-7 is a critical first step toward unraveling its function in cells. In previous work we have developed an engineered enzyme—modified substrate strategy for identifying relevant targets of individual PARP family members ([Carter-O'Connell et al., 2014]; [Carter-O'Connell et al., 2016]; [Carter-O'Connell and Cohen, 2015]; [Carter-O'Connell et al., 2018]). This chemical genetic (CG) method uses engineered PARPs and an orthogonal NAD^+ analogue that contains a clickable handle (e.g. an alkyne) that is located at the N-6 position of the adenine ring (5-Bn-6-a-NAD^+). […] Importantly, 5-Bn-6-a-NAD^+ is not used by wild-type (WT) PARPs and in this way is orthogonal to native NAD^+. […] We therefore sought a new orthogonal NAD^+ analogue that would serve as an efficient substrate for floor position engineered PARP-7, I631G PARP-7 (IG-PARP-7) (Figure 1a).
Figure 1. A chemical genetic strategy for identifying the direct MARylation targets of PARP-7. (a) Schematic of chemical genetic approach for identifying direct targets of PARP-7. (b) Crystal structure of human PARP1 bound to the non-hydrolyzable NAD^+ analog benzamide adenine dinucleotide (BAD). PDB: 6bhv. […] Following copper-catalyzed click chemistry with biotin-azide, proteins were resolved by SDS-PAGE and biotinylated proteins were detected by Western blot detection using Streptavidin-HRP. […]

PARP-7 = target: T2, PARP-7 (Homo sapiens, UniProt Q7Z3E1); settings: time course in HEK 293 T cells
T2 sequence (Q7Z3E1 1-657): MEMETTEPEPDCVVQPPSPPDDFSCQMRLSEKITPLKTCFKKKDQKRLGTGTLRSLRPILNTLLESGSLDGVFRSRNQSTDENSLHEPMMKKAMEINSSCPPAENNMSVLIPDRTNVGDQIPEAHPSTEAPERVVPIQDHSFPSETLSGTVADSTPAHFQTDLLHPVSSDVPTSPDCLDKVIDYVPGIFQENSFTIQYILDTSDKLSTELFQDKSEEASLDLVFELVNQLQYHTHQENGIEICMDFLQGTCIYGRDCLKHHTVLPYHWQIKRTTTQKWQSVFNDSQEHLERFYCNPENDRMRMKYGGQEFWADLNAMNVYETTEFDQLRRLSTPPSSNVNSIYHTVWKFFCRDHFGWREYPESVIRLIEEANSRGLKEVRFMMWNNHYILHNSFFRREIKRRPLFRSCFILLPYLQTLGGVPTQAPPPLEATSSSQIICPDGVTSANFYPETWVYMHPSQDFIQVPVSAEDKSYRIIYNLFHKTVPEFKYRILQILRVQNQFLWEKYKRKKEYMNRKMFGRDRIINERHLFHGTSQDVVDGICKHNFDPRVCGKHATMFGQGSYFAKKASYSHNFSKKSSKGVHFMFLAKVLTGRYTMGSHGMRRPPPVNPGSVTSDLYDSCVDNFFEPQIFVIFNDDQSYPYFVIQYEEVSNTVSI

T1 sequence (Q7Z3E1 whole entry I631G): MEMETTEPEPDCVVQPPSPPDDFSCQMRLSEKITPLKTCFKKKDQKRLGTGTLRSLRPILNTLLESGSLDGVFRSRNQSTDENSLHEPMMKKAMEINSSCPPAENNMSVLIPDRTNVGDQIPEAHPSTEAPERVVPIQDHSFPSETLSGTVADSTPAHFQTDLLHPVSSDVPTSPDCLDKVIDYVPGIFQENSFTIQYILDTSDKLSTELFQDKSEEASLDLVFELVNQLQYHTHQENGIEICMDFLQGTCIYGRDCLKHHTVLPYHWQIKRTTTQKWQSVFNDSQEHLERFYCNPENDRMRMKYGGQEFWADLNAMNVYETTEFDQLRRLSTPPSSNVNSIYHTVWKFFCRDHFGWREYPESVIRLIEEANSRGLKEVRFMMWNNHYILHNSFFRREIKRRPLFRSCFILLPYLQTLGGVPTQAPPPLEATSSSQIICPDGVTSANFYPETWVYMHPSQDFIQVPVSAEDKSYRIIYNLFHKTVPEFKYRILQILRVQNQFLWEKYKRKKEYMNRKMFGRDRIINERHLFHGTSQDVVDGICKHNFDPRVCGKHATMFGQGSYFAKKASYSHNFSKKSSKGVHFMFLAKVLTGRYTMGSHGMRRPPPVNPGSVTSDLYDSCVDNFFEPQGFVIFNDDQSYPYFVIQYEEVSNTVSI

| decay of PARP-7-mediated MARylation of PARP-13.2 (PARP-7) | Structure (SMILES) | substrate for floor position engineered PARP-7 (IG-PARP-7) (IG-PARP-7 (I631G PARP-7)) |
| --- | --- | --- |
|  | C#CCNc1ncnc2c1ncn2C1OC(COP(=O)(O)OP(=O)([O-])OCC2OC([n+]3cc(Cc4ccccc4)cc(C(N)=O)c3)C(O)C2O)C(O)C1O (centres unmarked) [5-Bn-6-a-NAD^+, reference compound] | poor substrate |
| does not lead to the decay | C[C@]1(c2nc3c(C(N)=O)cccc3[nH]2)CCCN1 [veliparib] |  |
